SMILES strings stand for the structures. Values joined by “and” are separate entries in the source; they are usually repeats but may differ in a detail not shown here. Equal entries are not always repeated. Where two headings read alike, the source gives them in different places.

What is called inhibition is the drop in the measured response relative to a control, in per cent. What is called IC50 is the concentration that inhibits the measured activity by half. One may read the Kd as a measure of binding affinity in units of concentration.

In experiment [1] the target is T1, LecA (Pseudomonas aeruginosa, UniProt Q05097).
T1 construct: made in house; host or cells: E. coli BL21 (DE3), plasmid pET25pa11
T1 sequence (Q05097 whole entry): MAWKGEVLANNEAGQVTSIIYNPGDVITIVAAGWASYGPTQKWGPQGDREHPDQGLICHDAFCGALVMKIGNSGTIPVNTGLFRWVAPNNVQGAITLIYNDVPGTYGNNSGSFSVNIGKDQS
As to the kind of experiment: Library screening using the FP competitive binding assay (three concentrations). The text has this:
Next, we screened a library of catechols from F. Hoffmann‐La Roche, the developer of Tolcapone, in the competitive binding assay to establish a structure–activity relationship. To this end, two sets of compounds with a molecular cut‐off of 500 Da were chosen: a first set of 342 compounds contained derivatives of Tolcapone, while a second set of 3222 compounds comprised catechols covering a larger chemical space. […] Tests were run in a 384‐well‐plate format at three concentrations (first set at 125, 32, and 4 µM, second set at 100, 25, and 3 µM) in presence of 10% DMSO and 250 µM 2‐mercaptoethanol to prevent interference by a potential unspecific reactivity of electron‐rich catechols as established earlier.^[ [30] ^]
The screening followed the same assay by Joachim et al.^[2] as described above. Compounds in DMSO (1 µL with the appropriate concentration) were plated using a robot into black 384-well microtiter plates (Greiner Bio-One, Germany, cat no 781900) by the Roche compound handling facility at four replicates per concentration and compound. A mixture of LecA, sulfo-Cy5-Gal and 2-mercaptoethanol in TBS/Ca (20 mM Tris, 147 mM NaCl, 2.6 mM KCl at pH 7.4 supplemented with 1 mM CaCl2) with DMSO was added at HIPS. Final concentrations in both screening rounds were the following: 5 µM LecA, 250 µM 2-mercaptoethanol, 10 nM sulfo-Cy5-Gal and 10% DMSO. Final concentrations of the 342 compounds of the first screening round were 125 µM, 32 µM and 4 µM. The 3222 compounds of the second screening round were tested at final concentrations of 100 µM, 25 µM and 3 µM. The plate was sealed (EASYseal, Greiner Bio-One, cat no 676001), briefly centrifuged and incubated at room temperature in the dark under shaking conditions. Fluorescence intensities were measured after 1 h and 24 h using a PheraStar FS plate reader (BMG Labtech GmbH, Germany) with spectral filters for excitation at 590 nm and emission at 675 nm and polarization was calculated after blank values of 5 µM LecA in TBS/Ca buffer with 250 µM 2-mercaptoethanol and 10% DMSO were subtracted from the test compounds. The data were analysed using the MARS Data Analysis software. […] All stated values are the average including the standard deviation based on three replicates for 100 µM and four replicates in the case of compounds at 125 µM.

Experiment [2] concerns the target T1, LecA. In words: biochemical. Format: binding. How it is done: Therefore, we focused our attention on commercially available nitro‐catechols. Prominent derivatives are inhibitors of the enzyme catechol‐O‐methyltransferase (COMT) and approved drugs for the treatment of Parkinson's disease. Four commercial COMT inhibitors were thus evaluated in a previously reported competitive binding assay based on fluorescence polarisation (FP, Table 1, Figure 1).^[ [32] ^]
The competitive binding assay was performed in analogy to Joachim et al.^[2] 10 µL of a solution containing LecA (40 µM) and sulfo-Cy5-Gal (20 nM, synthesis described in Kuhaudomlarp, Siebs et al.^[5]) in TBS/Ca buffer (20 mM Tris, 147 mM NaCl, 2.6 mM KCl at pH 7.4 supplemented with 1 mM CaCl2) were distributed in into wells of a black 384-well microtiter plate (Greiner Bio-One, Germany, cat no 781900). Then, 10 µL of serial dilutions of compounds (3 mM to 1.5 µM, dilution factor 0.5) in TBS/Ca with 40% DMSO were added in technical triplicates. Final concentrations after mixing were the following: 1.5 mM – 0.73 µM compound, 20 µM LecA, 10 nM sulfo-Cy5-Gal and 20% DMSO. The plate was sealed (EASYseal, Greiner Bio-One, cat no 676001), briefly centrifuged and incubated at room temperature in the dark under shaking conditions. Fluorescence intensity was measured after 1 h and 4 h using a PheraStar FS plate reader (BMG Labtech GmbH, Germany) with spectral filters for excitation at 590 nm and emission at 675 nm and polarization was calculated after blank values of 20 µM LecA in TBS/Ca buffer with 20% DMSO were subtracted from the test compounds. The data were analysed using the four-parameter variable slope model of the MARS Data Analysis software. The top and bottom plateau were assigned based on the control compound methyl α-d-galactoside and the data was reanalysed with these fixed values. If not mentioned otherwise, the experiment was repeated at least three times for each compound and the average and standard deviation are given. In case Triton X-100 was used it was added to the TBS/Ca buffer before the assay.

The target of experiment [3] is T1, LecA. As to the kind of experiment: biochemical. Type of experiment: binding. To be noted: ITC. How it is done: Isothermal titration calorimetry was performed on a MicroCal PEAQ-ITC (Malvern Panalytical) at 25 °C and 750 rpm stirring. The cell was filled with LecA (75 - 111 µM) in TBS/Ca buffer (20 mM Tris, 147 mM NaCl, 2.6 mM KCl at pH 7.4 supplemented with 1 mM CaCl2) with 20% DMSO and titrated with ligand (0.75 mM or 1.5 mM, 19 injections) in the same buffer. Data were analysed using the one binding site model in the MicroCal PEAQ-ITC analysis software (Malvern Panalytical). The first injection of each titration was excluded and the baseline subtracted for the final figures. Three titration per compound were performed and the average as well as standard deviation are given.

[4] abbreviates: read-out: Activity [%] (% inhibition relative to 500 µM pNPGal).
The mark [5] stands for this setting: IC50, extended dose-response analysis, 20% DMSO, no 2-mercaptoethanol, three experiments.
The mark [6] stands for this setting: individual replicate (Repl. 1-3).

On to `O=C(c1cc(O)c(O)c([N+](=O)[O-])c1)c1nc2ccccc2[nH]1` [compound 28], for which, at LecA [1] (setting [4]), the inhibition at 100 µM amounted to 26.7 ± 3.6%.
On to `Cc1ccc(C(=O)c2cc([N+](=O)[O-])c(O)c(O)c2Cl)cc1` [compound 15], for which the IC50 against LecA [2] (setting [5]) stood at 58 µM; on LecA [2] (IC50 in presence of 0.01% Triton X-100, FP assay, 0.01% Triton X-100, one replicate), 67 µM; on LecA [2] (IC50 in presence of 0.057% Triton X-100, FP assay, 0.057% Triton X-100, one replicate), 56 µM. In addition, the inhibition at 100 µM at LecA [1] (setting [4]) was determined as 96.7 ± 4%. Further, the “N (sites)” value is 0.92 ± 0.05 and 0.922 at LecA [3] (average of three titrations); 0.947 and 0.957 and 0.862 on LecA [3] (setting [6]). The ΔG was -6.74 ± 0.14 kcal/mol and -6.74 kcal/mol on LecA [3] (average of three titrations); -6.6 kcal/mol and -6.88 kcal/mol and -6.74 kcal/mol on LecA [3] (setting [6]). The ΔH is -5.45 ± 0.359 kcal/mol and -5.45 kcal/mol at LecA [3] (average of three titrations); -5.76 kcal/mol and -5.04 kcal/mol and -5.52 kcal/mol on LecA [3] (setting [6]). Also, the “-TΔS” value at LecA [3] (setting [6]) was -0.837 kcal/mol and -1.84 kcal/mol and -1.22 kcal/mol. In addition, the equilibrium dissociation constant (Kd) on LecA [3] (KD, 25 °C, 20% DMSO, average of three titrations) is 12 µM; at LecA [3] (KD, individual replicate (Repl. 1-3)), 15.1 µM and 9.3 µM and 11.5 µM.
For the compound `Cc1ccc(C(=O)c2cc(O)c(O)c(C#N)c2)cc1` [compound 12], the inhibition at 100 µM at LecA [1] (setting [4]) came to 20.2 ± 4.8%.
Turning to `O=C(NC12CC3CC(CC(C3)C1)C2)c1cc(O)c(O)c([N+](=O)[O-])c1` [compound 24], at LecA [1] (setting [4]), the inhibition at 100 µM was 10 ± 3.6%.
Turning to `COc1cc(C(=O)c2ccc(C)cc2)cc([N+](=O)[O-])c1OC` [compound 5], on LecA [1] (compound 125 µM (marked *), 10% DMSO, 250 µM 2-mercaptoethanol, four replicates), the “Activity [%] (% inhibition relative to 500 µM pNPGal)” value was “complete lack of activity”. For the same compound, the inhibition at 125 µM at LecA [1] (setting [4]) was -5.3 ± 7.6%.
Consider `O=[N+]([O-])c1ccc(O[C@@H]2O[C@H](CO)[C@H](O)[C@H](O)[C@H]2O)cc1` [pNPGal, para‐nitrophenyl β‐D‐galactoside, reference compound], for which the dissociation constant Kd on LecA [3] (25 °C, 20% DMSO, average of three titrations, read-out: KD) came to 10.1 µM. Besides, at LecA [3] (average of three titrations), the “N (sites)” value was 0.81 ± 0.09 and 0.810; the ΔG was -6.84 ± 0.072 kcal/mol and -6.84 kcal/mol. For the same compound, on LecA [3] (setting [6]), the “-TΔS” value is 5.83 kcal/mol and 4.64 kcal/mol and 5.02 kcal/mol; the “N (sites)” value is 0.722 and 0.801 and 0.908; the ΔG was -28.4 kJ/mol (2×) and -28.9 kJ/mol; the ΔH is -12.6 kcal/mol and -11.5 kcal/mol and -11.8 kcal/mol. In addition, at LecA [3] (individual replicate (Repl. 1-3), read-out: KD), the Kd was 10.8 µM (2×) and 8.8 µM.
Turning to `O=C(c1cc(O)c(O)c([N+](=O)[O-])c1)C1CCCCC1` [compound 27], the inhibition at 100 µM at LecA [1] (setting [4]) was 23.4 ± 3.6%.
For the compound `Nc1cc(Cl)ccc1-c1nc(-c2cc(O)c(O)c([N+](=O)[O-])c2)cs1` [compound 17], on LecA [1] (setting [4]), the inhibition at 100 µM worked out at 15.2 ± 8.7%.
On to `Cc1ccc(C(=O)c2cc(O)c(O)c(-c3nc(C)no3)c2)cc1` [compound 13], for which inhibition against LecA [2] (setting [5]) was half-maximal at 346 ± 36 µM (IC50). Further, on LecA [1] (setting [4]), the inhibition at 100 µM came out at 57.7 ± 3.8%.
For `O=C(c1cc(O)c(O)c([N+](=O)[O-])c1)N1CCCCC1` [compound 25], the inhibition at 100 µM at LecA [1] (setting [4]) came out at 5 ± 11.8%.
Same read-out and setting: then `O=C(c1ccccc1)c1cc(O)c(O)c([N+](=O)[O-])c1` [compound 29], with 41.8 ± 7.3%; and `CCOC(=O)c1cc(O)c(O)c([N+](=O)[O-])c1` [compound 20], with 14 ± 4.2%; and `O=C(NCc1ccccc1)c1cc(O)c(O)c([N+](=O)[O-])c1` [compound 23], with 26.6 ± 4.2%.
In the case of `Cc1ccc(C(=O)c2cc(N)c(O)c(O)c2)cc1` [compound 8], the inhibition at 100 µM on LecA [1] (setting [4]) worked out at 7.9 ± 3.4%.
Still for that read-out and setting: as for `Cc1ccc(C(=O)c2cc(O)c(O)c(C(N)=O)c2)cc1` [compound 11], the figure is 21.8 ± 3.4%; as for `Cc1ccc(C(=O)c2cc(O)c(O)c(-c3nnn[nH]3)c2)cc1` [compound 14], 0.8 ± 8.7%.
As to `Cn1nc(-c2cc(O)c(O)c([N+](=O)[O-])c2)cc1O` [compound 18], on LecA [1] (setting [4]), the inhibition at 100 µM was 1.9 ± 3.3%.
Same read-out and setting: then `Cc1ccc(C(=O)c2cc(O)c(O)c(C(=O)O)c2)cc1` [compound 9], with 2.1 ± 2.9%.
Consider `CC(=O)c1cc(O)c(O)c([N+](=O)[O-])c1` [compound 19], for which the inhibition at 100 µM at LecA [1] (setting [4]) amounted to 31.5 ± 3.8%.
As for `Cc1ccc(C(=O)c2cc(O)c(O)c(O)c2)cc1` [compound 7], the inhibition at 100 µM at LecA [1] (setting [4]) is 7.5 ± 4.9%.
Still for that read-out and setting: then `O=C(c1cc(O)c(O)c([N+](=O)[O-])c1)c1ncc[nH]1` [compound 26], with 16.8 ± 3.8%; and `Cc1ccc(C(=O)c2ccc(O)c(O)c2)cc1` [compound 6], with 13.8 ± 3.9%.
On the same count and under the same terms, then `Cc1noc(-c2cc(O)c(O)c([N+](=O)[O-])c2)n1` [compound 16], with 9.4 ± 7.5%; and `CCCCOC(=O)c1cc(O)c(O)c([N+](=O)[O-])c1` [compound 21], with 22.9 ± 1.8%; and `CC(=O)Nc1cc(C(=O)c2ccc(C)cc2)cc(O)c1O` [compound 10], with 20.1 ± 2.8%.
Still for that read-out and setting: as for `O=C(Nc1ccc(F)cc1)c1cc(O)c(O)c([N+](=O)[O-])c1` [compound 22], the figure is 8.7 ± 3.3%.

For the origin of these results see paper PMC12684298, “The Parkinson's Disease Drug Tolcapone and Analogues are Potent Glycomimetic Lectin Inhibitors of Pseudomonas aeruginosa LecA” (Angewandte Chemie (International Ed. in English), 2025).
